AC50, IC50 and EC50 data for 21 compounds are collected here from ChEMBL document CHEMBL1201862, “PubChem BioAssay data set” (2004).

Activity calls are given as the source filed them.

Experiment [1] concerns the target T1, DNA repair and recombination protein RAD54-like (Homo sapiens, UniProt Q92698).
T1 sequence (Q92698 whole entry): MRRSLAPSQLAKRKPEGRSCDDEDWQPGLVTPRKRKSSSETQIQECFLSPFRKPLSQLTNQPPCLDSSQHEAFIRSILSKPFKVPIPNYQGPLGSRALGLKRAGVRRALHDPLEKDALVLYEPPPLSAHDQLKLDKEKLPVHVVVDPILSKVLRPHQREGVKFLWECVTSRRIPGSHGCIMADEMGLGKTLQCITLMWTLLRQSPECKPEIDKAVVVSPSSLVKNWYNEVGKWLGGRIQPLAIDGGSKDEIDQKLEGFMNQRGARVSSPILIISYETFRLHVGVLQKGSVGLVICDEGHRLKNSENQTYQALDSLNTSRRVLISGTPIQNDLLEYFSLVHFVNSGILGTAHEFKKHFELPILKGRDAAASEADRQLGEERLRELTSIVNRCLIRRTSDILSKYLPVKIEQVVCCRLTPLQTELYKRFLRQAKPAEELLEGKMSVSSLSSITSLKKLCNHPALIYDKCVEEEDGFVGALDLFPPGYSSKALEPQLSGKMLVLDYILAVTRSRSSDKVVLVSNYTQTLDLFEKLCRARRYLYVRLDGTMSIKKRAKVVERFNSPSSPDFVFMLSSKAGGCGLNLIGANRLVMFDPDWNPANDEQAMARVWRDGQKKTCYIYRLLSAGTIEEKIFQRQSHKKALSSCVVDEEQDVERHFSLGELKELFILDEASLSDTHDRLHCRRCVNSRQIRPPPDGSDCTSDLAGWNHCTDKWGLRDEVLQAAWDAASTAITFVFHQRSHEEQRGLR
Kind of experiment: RAD54 Holliday junction migration blockers – biochemical, fluorescence, cherry-picked samples, dose series, confirmation (AID 651657). The class given is functional.

The target of experiment [2] is T2, Fatty acid synthase (Homo sapiens, UniProt P49327). Kind of experiment: inhibition of human FAS-TE enzyme activity – biochemical, endpoint fluorescence intensity, uHTS hits, dose response (AID 624327).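 Also: fluorescence from hydrolysis of an O-methyl fluorescein acyl ester substrate by the enzyme.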 In kind it is functional.
In experiment [3] the target is T2, Fatty acid synthase. As to the kind of experiment: inhibition of human FAS-TE enzyme activity – biochemical, kinetic fluorescence intensity, dose response (AID 624326).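 Also: rate of fluorescence rise from hydrolysis of a fluorogenic O-methyl fluorescein ester substrate.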 The class given is functional.
The target in experiment [4] is Heat shock protein HSP 90-alpha (Homo sapiens, UniProt P07900). In kind it is functional, organism-based.
Experiment [5] has as its target T3, High affinity choline transporter 1 (Homo sapiens, UniProt Q9GZV3).
T3 sequence (Q9GZV3 whole entry): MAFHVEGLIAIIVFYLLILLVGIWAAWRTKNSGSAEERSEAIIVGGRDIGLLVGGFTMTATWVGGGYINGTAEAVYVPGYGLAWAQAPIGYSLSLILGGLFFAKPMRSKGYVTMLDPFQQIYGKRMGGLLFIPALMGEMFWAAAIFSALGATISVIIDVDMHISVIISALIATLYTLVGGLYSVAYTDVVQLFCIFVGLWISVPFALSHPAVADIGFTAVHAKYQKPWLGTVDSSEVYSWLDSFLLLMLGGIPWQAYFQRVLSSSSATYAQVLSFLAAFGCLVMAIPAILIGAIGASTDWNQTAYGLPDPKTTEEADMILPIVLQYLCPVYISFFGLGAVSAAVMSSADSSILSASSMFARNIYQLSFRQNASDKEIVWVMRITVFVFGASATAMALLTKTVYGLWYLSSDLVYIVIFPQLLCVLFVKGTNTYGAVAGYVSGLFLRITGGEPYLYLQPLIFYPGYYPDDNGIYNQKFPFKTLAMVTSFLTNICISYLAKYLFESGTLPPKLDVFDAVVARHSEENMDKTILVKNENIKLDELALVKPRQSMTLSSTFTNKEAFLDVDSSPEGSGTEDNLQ
Kind of experiment: human choline transporter blockers, potency – cell-based, 5-point CRC, membrane potential dye, dose response (AID 504840). In kind it is functional.

The target in another experiment is Genome polyprotein (dengue virus type 2, UniProt P29990). As to the kind of experiment: flavivirus cap methylation enzyme inhibition – biochemical, confirmation dose response, primary screen (AID 588689). In kind it is functional.
Experiment [6] is described as follows: activation of miR-122 Renilla sensor silencing – cell-based, Huh7 psiCHECK-miR122, Renilla luciferase, cherry-picked, dose response (AID 651956).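 Also: huh7 hepatoma cells stably carrying a psiCHECK-2 miR-122 sensor plasmid; renilla luciferase signal reporting endogenous miR-122 activity after 48 h compound exposure.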 In kind it is functional.
For experiment [7], the target named is T4, Adenosylmethionine-8-amino-7-oxononanoate aminotransferase (Mycobacterium tuberculosis, UniProt P9WQ81).
T4 sequence (P9WQ81 whole entry): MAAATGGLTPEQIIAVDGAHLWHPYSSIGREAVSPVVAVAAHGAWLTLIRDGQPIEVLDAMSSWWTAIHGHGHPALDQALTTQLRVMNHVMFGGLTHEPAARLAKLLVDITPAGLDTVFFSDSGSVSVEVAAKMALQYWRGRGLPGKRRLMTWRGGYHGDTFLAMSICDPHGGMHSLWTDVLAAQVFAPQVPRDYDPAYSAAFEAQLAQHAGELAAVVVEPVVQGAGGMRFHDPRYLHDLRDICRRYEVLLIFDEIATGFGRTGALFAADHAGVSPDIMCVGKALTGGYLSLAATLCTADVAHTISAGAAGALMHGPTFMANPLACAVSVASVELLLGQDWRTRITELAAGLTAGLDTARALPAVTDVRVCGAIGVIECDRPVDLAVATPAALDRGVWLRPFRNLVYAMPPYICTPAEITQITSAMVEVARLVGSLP
Kind of experiment: Mycobacterium tuberculosis BioA enzyme inhibitor Measured in Biochemical System Using Plate Reader - 2163-02_Inhibitor_Dose_CherryPick_Activity. The class given is functional, Mycobacterium tuberculosis UT205.

Experiment [8] has as its target T5, RNA-binding protein pos-1 (Caenorhabditis elegans, UniProt G5EF15).
T5 sequence (G5EF15 whole entry): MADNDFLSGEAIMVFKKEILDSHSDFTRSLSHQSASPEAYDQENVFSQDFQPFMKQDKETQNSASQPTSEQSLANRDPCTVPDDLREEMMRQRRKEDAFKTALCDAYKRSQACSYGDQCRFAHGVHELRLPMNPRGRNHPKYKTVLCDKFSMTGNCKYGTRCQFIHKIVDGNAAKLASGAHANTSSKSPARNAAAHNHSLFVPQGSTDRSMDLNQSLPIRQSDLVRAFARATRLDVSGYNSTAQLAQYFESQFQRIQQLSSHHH
As to the kind of experiment: disruptors of C. elegans POS-1 RNA interaction – biochemical, fluorescence polarization, dose response (AID 1964).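 Also: purified POS-1 fused to maltose binding protein made in E. coli; potency of compounds blocking POS-1 binding to fluorescent RNA.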

Experiment [9] concerns the target T6, Zinc finger protein mex-5 (Caenorhabditis elegans, UniProt Q9XUB2).
T6 sequence (Q9XUB2 whole entry): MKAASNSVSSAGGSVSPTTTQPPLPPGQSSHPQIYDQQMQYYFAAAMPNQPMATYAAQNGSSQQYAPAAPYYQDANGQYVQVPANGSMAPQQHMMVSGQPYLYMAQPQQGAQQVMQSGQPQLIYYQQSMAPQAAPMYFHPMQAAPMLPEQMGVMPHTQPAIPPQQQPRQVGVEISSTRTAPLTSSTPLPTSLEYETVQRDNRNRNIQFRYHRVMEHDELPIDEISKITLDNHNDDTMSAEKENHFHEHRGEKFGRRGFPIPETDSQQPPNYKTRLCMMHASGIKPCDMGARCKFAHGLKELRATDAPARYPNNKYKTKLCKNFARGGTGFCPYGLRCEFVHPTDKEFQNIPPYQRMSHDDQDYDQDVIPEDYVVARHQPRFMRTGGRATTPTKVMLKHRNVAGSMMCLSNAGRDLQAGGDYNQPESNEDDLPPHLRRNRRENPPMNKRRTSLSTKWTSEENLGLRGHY
As to the kind of experiment: potency of MEX-5 RNA-binding blockers – biochemical, C. elegans, fluorescence polarization, dose response (AID 1960).

Experiment [10] is described as follows: intracellular Trypanosoma cruzi inhibitors in host cells – cell-based, plate reader, cherry-pick samples, set 3, dose response (AID 651818).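 Also: compounds incubated with infected cells for about four days.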 The class given is functional.
Experiment [11] is described as follows: Luminescence Cell-Based Dose Confirmation HTS to Identify Activators of 5'UTR Stem-Loop Driven Alpha-Synuclein mRNA Translation in H4 Neuroglioblastoma Cells. [Related pubchem assays: 1829 (Project Summary), 1814 (Primary HTS)]. The class given is functional.
The nature of experiment [12]: Luminescence Cell-Based Dose Response HTS to Identify Activators of Luciferase Translation or Activity in H4 […] Cells. [Related pubchem assays: 1829 (Project Summary), 1814 (Primary HTS)]. In kind it is functional.
For another experiment, the system named is H4. As to the kind of experiment: Luminescence Cell-Based Dose Response HTS to Identify Activators of 5'UTR Stem-Loop Driven Prion Protein mRNA Translation in H4 Neuroglioblastoma Cells. [Related pubchem assays: 1829 (Project Summary), 1814 (Primary HTS)]. In kind it is functional. The conditions noted are these: Homo sapiens.
A further experiment concerns HeLa. Kind of experiment: ATP-based viability loss in HeLa cells – cell-based, CellTiter-Glo luminescence, cherry-pick samples, cytotoxicity control for MITF activator project, dose response (AID 540259). In kind it is functional. To be noted: Homo sapiens.
Experiment [13] deals with Streptococcus sp. 'group A'. As to the kind of experiment: Streptococcus pyogenes SK(-)GAS viability under kanamycin – luminescence, BacTiterGlo, confirmation, counter-screen for streptokinase expression inhibitor project, dose response (AID 1900). The class given is functional, organism-based.
In a further experiment the test system is Streptococcus. As to the kind of experiment: GAS UMAA2166 growth inhibition – luminescence, BacTiterGlo, counter-screen for streptokinase expression inhibitor project, dose response (AID 1915).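 Also: potency for reduction of bacterial viability or growth.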 In kind it is functional, organism-based.

T2 sequence (P49327 whole entry): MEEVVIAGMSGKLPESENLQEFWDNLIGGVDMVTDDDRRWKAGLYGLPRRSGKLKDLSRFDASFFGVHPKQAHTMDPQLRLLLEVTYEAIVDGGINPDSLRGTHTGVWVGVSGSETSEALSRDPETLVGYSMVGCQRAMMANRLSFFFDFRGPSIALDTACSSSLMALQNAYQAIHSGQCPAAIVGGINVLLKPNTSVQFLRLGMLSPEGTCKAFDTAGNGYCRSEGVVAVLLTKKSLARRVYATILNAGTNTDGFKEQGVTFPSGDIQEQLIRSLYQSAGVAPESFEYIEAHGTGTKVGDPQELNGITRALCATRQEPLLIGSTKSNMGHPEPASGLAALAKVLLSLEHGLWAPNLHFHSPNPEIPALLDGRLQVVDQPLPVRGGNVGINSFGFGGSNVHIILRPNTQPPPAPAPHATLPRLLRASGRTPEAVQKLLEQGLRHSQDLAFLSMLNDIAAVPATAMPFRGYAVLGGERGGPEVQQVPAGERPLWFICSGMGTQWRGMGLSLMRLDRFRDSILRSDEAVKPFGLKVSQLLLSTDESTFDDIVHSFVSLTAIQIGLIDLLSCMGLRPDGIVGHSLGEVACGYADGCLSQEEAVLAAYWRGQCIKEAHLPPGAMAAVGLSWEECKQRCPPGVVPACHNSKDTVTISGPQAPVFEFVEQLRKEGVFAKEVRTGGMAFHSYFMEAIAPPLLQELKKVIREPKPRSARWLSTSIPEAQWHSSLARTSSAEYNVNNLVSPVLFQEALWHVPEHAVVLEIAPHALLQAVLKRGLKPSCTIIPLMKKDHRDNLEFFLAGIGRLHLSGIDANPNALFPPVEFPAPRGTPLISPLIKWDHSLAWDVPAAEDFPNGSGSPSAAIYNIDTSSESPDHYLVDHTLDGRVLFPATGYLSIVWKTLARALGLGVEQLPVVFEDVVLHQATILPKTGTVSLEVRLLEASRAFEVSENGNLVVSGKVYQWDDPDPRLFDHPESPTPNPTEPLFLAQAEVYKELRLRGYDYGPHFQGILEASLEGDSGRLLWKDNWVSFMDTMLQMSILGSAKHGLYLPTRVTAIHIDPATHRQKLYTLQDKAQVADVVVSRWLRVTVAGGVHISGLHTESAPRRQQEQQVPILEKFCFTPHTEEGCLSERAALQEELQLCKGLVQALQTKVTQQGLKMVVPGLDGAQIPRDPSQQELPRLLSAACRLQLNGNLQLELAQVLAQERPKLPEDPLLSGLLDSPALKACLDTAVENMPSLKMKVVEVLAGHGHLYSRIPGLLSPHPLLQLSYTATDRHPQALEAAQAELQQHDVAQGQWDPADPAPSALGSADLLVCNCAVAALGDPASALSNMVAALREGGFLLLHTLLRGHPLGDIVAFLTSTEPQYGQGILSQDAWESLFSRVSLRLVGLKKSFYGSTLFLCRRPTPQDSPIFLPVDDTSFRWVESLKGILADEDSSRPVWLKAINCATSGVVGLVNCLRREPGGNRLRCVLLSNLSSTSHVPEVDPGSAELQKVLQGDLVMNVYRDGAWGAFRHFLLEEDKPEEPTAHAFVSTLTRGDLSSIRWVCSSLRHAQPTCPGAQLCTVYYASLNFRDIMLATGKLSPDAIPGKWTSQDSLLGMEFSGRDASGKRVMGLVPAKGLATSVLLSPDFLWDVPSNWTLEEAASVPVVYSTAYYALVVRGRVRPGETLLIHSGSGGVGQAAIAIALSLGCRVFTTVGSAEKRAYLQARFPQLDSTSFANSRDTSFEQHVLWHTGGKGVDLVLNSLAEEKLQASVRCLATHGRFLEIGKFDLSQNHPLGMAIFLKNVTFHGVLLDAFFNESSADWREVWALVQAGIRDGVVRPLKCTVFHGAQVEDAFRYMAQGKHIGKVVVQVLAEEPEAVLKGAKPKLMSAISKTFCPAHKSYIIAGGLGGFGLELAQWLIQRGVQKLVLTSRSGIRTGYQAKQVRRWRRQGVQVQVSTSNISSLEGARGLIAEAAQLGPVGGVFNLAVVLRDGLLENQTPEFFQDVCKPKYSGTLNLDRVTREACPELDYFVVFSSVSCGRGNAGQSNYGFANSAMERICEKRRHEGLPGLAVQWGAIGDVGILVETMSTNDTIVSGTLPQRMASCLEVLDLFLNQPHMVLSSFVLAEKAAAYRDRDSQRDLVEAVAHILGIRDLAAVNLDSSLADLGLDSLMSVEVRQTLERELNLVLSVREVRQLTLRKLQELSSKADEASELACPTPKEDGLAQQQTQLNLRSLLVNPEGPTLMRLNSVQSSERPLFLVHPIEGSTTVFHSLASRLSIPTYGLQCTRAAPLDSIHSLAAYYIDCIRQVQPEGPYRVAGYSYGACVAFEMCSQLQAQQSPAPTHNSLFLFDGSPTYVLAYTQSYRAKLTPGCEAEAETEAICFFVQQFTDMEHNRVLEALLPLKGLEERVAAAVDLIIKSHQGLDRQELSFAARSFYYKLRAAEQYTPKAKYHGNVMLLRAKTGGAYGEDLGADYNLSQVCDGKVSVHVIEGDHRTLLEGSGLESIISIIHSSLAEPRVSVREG
Sequence of Genome polyprotein (P29990 2492-3391 limits assumed): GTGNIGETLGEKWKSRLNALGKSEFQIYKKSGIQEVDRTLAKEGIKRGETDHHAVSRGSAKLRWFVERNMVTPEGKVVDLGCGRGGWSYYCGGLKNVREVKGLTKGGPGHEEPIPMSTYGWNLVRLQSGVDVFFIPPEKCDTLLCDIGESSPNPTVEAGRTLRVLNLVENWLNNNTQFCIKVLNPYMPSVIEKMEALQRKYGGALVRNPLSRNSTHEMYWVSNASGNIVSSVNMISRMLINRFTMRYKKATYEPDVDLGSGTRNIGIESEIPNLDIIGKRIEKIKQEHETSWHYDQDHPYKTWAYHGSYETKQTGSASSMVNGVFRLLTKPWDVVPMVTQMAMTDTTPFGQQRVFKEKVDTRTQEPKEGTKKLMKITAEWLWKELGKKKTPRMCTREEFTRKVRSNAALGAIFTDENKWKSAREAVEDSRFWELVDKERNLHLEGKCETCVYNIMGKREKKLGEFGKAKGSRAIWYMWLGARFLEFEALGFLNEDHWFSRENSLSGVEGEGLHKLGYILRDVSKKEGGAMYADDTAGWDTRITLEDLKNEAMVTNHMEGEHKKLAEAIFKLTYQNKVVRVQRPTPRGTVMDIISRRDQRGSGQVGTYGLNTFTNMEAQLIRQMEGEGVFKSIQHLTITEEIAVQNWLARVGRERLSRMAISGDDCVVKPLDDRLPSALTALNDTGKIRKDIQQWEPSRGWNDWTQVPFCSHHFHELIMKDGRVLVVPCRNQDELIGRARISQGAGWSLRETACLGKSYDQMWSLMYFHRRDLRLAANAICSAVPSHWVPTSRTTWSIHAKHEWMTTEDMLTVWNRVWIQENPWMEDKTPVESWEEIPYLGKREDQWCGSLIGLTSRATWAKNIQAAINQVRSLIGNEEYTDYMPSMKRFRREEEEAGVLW

Take `CCOc1cc2[nH]c(=S)n(Cc3ccc(C(=O)NCCCN(CC)CC)cc3)c(=O)c2cc1OCC`: the AC50 in experiment [1] is 40.1 µM (active).

Consider `CC(C)(C)N(Cc1ccccc1)C(=O)COC(=O)c1ccc([N+](=O)[O-])o1`, for which the IC50 on Fatty acid synthase [2] is 16.2 µM (active); on Fatty acid synthase [3], 12.2 µM (active).

As for `CCOC(=O)c1ccc(NC(=O)CC2C(=O)OCCN2CC)cc1` (configuration not stated), in [4], the AC50 was 4.65 µM (active). With `O=[N+]([O-])c1ccc(S(=O)(=O)Nc2nc(-c3ccccc3)cs2)cc1`, the IC50 was 4.57 µM (active) in experiment [5] and 59.6 µM (active) on Genome polyprotein. `Cc1nnc(NC(=O)CSc2nc(C(C)C)nc3sc(C)c(C)c23)s1`: the AC50 in [6] was 34.8 µM (active).

For the compound `O=C(c1ccncc1)N1CC[C@H]2[C@H](CO)Nc3ccc(Br)cc3[C@H]21`, the AC50 in experiment [7] is 18.5 µM (active). As to `CC1=NOC(=O)/C1=C\c1ccc2c(c1)OCO2`, the EC50 in [8] and in [9] was > 300 µM (not active) in each case. Moreover, the IC50 on Genome polyprotein is 7.17 µM (active). With `COc1ccc2nc(C)cc(Nc3ccc(C)cc3)c2c1`, the AC50 in experiment [1] is 19.4 µM (active).

`C[C@H]1CN([C@@H](C)CO)C(=O)Cc2cc(NC(=O)Nc3ccc(C(F)(F)F)cc3)ccc2O[C@H]1CN(C)Cc1ccc(Cl)c(Cl)c1`: in experiment [10], the AC50 was 2.92 µM (active). Consider `CN1c2ccc(-c3ccccc3)cc2[C@H]2[C@H](CCN2C(=O)c2ccccc2F)[C@H]1CO`, for which the AC50 in [7] was 0.183 µM (active). For the compound `COCC(=O)N(C)C[C@H]1Oc2cc(C#Cc3cccnc3)ccc2S(=O)(=O)N([C@H](C)CO)C[C@H]1C`, the half-maximal activity concentration (AC50) in [6] is 3.31 µM (active). As to `C[C@@H]1CN([C@H](C)CO)C(=O)c2cccc(NS(=O)(=O)c3ccc(Cl)cc3)c2O[C@@H]1CN(C)Cc1ccc(C(=O)Nc2ccccc2N)cc1`, the concentration at half-maximal activity (AC50) in experiment [10] was 9.17 µM (active). `O=C(CNc1ccccc1OC(F)F)N1CCc2ccccc21`: the results for the EC50 (in [11]; in experiment [12]; in the experiment on H4) were 0.103 µM (active), 6 µM (active) and 4.45 µM (active), respectively. Besides, the half-maximal activity concentration (AC50) in the experiment on HeLa was 72.1 µM (active). As for `C[C@@H]1CN([C@H](C)CO)S(=O)(=O)c2ccc(C#CC3CC3)cc2O[C@@H]1CN(C)C(=O)c1cccc(F)c1`, the AC50 in experiment [6] was 22.3 µM (active).

As to `CC[C@H](C)/C=C(C)/C=C/C1=CC2=C(Cl)C(=O)[C@](C)(OC(C)=O)C(=O)C2=CO1` [SCLEROTIORIN], the AC50 in experiment [4] is 0.8 µM (active). On to `CCn1cc(C(=O)NCCC2=CCCCC2)c(=O)c2cc(S(=O)(=O)N(C)C)ccc21`, for which the results for the IC50 on Fatty acid synthase [2] and at Fatty acid synthase [3] were 4.69 µM (active) and 2.74 µM (active), respectively. Regarding `C[C@H](CO)N1C[C@H](C)[C@H](CN(C)S(=O)(=O)c2ccc(F)cc2)Oc2c(NC(=O)CCCCCC(=O)Nc3ccccc3N)cccc2C1=O`, in experiment [10], the AC50 is 2.58 µM (active). Turning to `CC(=O)c1ccc(N2CCN(S(=O)(=O)c3c(C(=O)N4CCCC4)c(C)n(C)c3C)CC2)cc1`, in [7], the AC50 was 11.6 µM (active). With `Cc1cc(/C=C2\SC(=S)NC2=O)c(C)n1-c1ccc(O)cc1`, the EC50 was 1.69 µM (active) in [13] and 2.36 µM (active) with Streptococcus. Besides, in [4], the AC50 is 15.5 µM (active). Regarding `O=C(Nc1ccc(Cc2ccncc2)cc1)c1cc([N+](=O)[O-])ccc1N1CCOCC1`, the IC50 on Fatty acid synthase [2] is 1.53 µM (active); at Fatty acid synthase [3], 1.24 µM (active). In the case of `C[C@@H]1CN([C@@H](C)CO)C(=O)c2cc(N(C)C)ccc2O[C@@H]1CN(C)Cc1ccc(C(=O)Nc2ccccc2N)cc1`, the AC50 in experiment [10] is 3.57 µM (active).
